In patent US9757350B2, “Small molecule inhibitors of replication protein A that also act synergistically with cisplatin” (Indiana University Research and Technology Corp., priority 2010, dated 2017):

Tests used:
[1] = target: T1, full-length heterotrimeric RPA (Homo sapiens, UniProt P27694); test: Reversibility of full-length RPA inhibition: dialysis, then EMSA; format: binding; conditions: overnight dialysis, then EMSA with 34-base DNA
T1 construct: Human full-length, un-tagged heterotrimeric RPA (RPA) was purified as previously describe; made in house
Experimental: Considering the differential inhibition observed between the anhydride and halo esters with respect to specificity, experiments were carried out to determine if the isoborneol halo-esters inhibited full-length RPA in an irreversible fashion. Full-length RPA was mixed with MCI13E or vehicle control and the reaction mixtures were then dialyzed overnight. Referring now to FIG. 5. Gel showing irreversible inactivation of full-length heterotrimeric RPA by MCI13E. Incubation of RPA with MCI13E, dialysis and recovery was performed as described for FIG. 3. DNA binding activity of the resulting protein was assessed by EMSA using a 5′-[^32P]-ss 34-base DNA as described in “Methods”. Lanes 1-4 pre-dialysis, lanes 5 and 6 post dialysis. […] In fact, the degree of inhibition was similar to that observed for the MCI13E treated RPA before dialysis (FIG. 5 lanes 3 and 4). […] This activity is consistent with MCI13E and F and their reaction with RPA serving as a pharmacodynamic marker of RPA inhibition or as a biomarker for RPA expression and activity.
In order to assess the reversibility of select SMIs, the indicated SMI was pre-incubated with RPA or the DBD-A/B construct for 30 minutes at room temperature. […] The resulting protein was recovered and concentration determined by Bradford analysis. […]

[2] = test system: A2780 cells; test: CCK-8 cell viability assay, A2780; format: cell-based; conditions: 24 hours of treatment
Experimental: (§1) Referring now to FIG. 13A. Cell Viability and Apoptosis of Ovarian and p53 null Lung Cancer Cell Lines. A) Ovarian cancer cell line A2780 and the p53 null lung cancer cell line, H1299, were treated with log dosing of MCI13E and viability analyzed via CCK-8 metabolic assay as described in Methods. Data is presented as cell survival which was determined as a percent of the untreated control cells and represents the average and standard deviation of triplicate experiments Referring now to FIG. 13B.
Ovarian cancer cell line, A2780, cells are difficult to use for crystal violet analysis due to their enhanced sensitivity to treatment. Therefore, the cell counting kit-8 (CCK) was used to determine the viability of A2780 cells in addition to the p53 null lung cancer cell line H1299, following a 24 hour treatment with log dosing of SMI. Cells were plated (1×10^5) in 24-well dishes and treated with inhibitor after 24 hours. After treatment media was aspirated and 1 ml of DMEM was added in addition to 100 μL of CCK-8 solution. Absorbance at 450 nm was measured over 4 hours in a SpectraMax M5 plate reader and values are presented as the percent untreated control at the two hour time point for three separate plate replicates each containing three assays per plate.

[3] = test system: NSCLC cell lines A549 and H460; test: Apoptosis by Annexin V/PI staining, NSCLC cell lines; format: cell-based; conditions: 48 hours
Experimental: Referring now to FIG. 11A. Gel showing effect of MCI13E on DNA-RPA binding. […] Cytotoxicity was analyzed via crystal violet analysis as described in “methods” 48 hours following MCI13E treatment. Data represent the average and standard deviation of four replicate experiments with each replicate containing triplicate determinations and the circles represent data from H460 cells and squares A549 cells. Referring now to FIG. 11C. Graph of MCI13E induced death via apoptosis in NSCLC cell lines. Cell were treated with the indicated concentrations of MCI13E for 48 hours and analyzed for the induction of apoptosis via Annexin V/PI staining Referring now to FIG. 11D. Graph of cell survival as a function of [MCI1EC]. Percent survival was calculated for each cell line using untreated cells as a control. […]
Flow Cytometry—After determining the SMI cytotoxicity, H460, A549 and H1299 lung cancer cell lines were analyzed for apoptosis using the Annexin V-FITC/Propidium Iodide (PI) Vybrant® Apoptosis Assay kit (Invitrogen, Gaithersburg, Md.). […] Following treatment, both adherent and non-adherent cells were collected, processed via the manufacturer's protocol (Invitrogen) and analyzed on a FACScan flow cytometer (Becton Dickson, San Jose, Calif.). Data was analyzed using WinDMI software (The Scripps Research Institute, Can Diego, Calif.) and results are presented as a percentage of control (untreated cells).

[4] = test system: H1299 cells; test: Apoptosis by Annexin V/PI staining, H1299; format: cell-based; conditions: H1299, Annexin V and propidium iodine staining
Experimental: as §1
Flow Cytometry—After determining the SMI cytotoxicity, H460, A549 and H1299 lung cancer cell lines were analyzed for apoptosis using the Annexin V-FITC/Propidium Iodide (PI) Vybrant® Apoptosis Assay kit (Invitrogen, Gaithersburg, Md.). Cells were plated in 6-well dishes (2×10^5 cells total), treated for 24 (H1299) or 48 (H460 and A549) hours with increasing concentrations of SMI. Following treatment, both adherent and non-adherent cells were collected, processed via the manufacturer's protocol (Invitrogen) and analyzed on a FACScan flow cytometer (Becton Dickson, San Jose, Calif.). Data was analyzed using WinDMI software (The Scripps Research Institute, Can Diego, Calif.) and results are presented as a percentage of control (untreated cells).

[5] = test system: A549 cells; test: Cell cycle analysis by PI staining, A549; format: cell-based; conditions: A549, increasing doses
Experimental: Referring now to FIG. 12A and FIG. 12B. Cell Cycle Analysis of Lung Cancer Cell Lines Following Treatment with MCI13E. A549. Referring now to FIG. 12C, and FIG. 12D. H460 were treated as indicated and analyzed for the cell cycle distribution using PI staining and flow cytometry. Quantification of data following 6 hours and 12 hour treatment with 10 and 20 μM MCI13E was performed for both A549 (FIG. 12E) and H460 (FIG. 12F) Data presented represent the averages of three replicate experiments.
Cell cycle analysis was also performed on the three lung cancer cell lines using PI staining to identify the potential arrest resulting from treatment with SMIs. Briefly, cells were plated in 6-well dishes (2×10^5 cells total) and treated for 6 or 12 hours with increasing concentration of inhibitor. Adherent and non-adherent cells were collected, washed twice with PBS containing 2% bovine serum albumin (BSA), resuspended in 70% cold EtOH and incubated overnight at −20° C. Cells were again collected and stained with PI (1 μg/mL) and RNaseA (25 μg/mL) for 30 min. at 37° C. followed by 1.5 hours at 4° C. in the dark. Flow cytometry was performed as above and data were analyzed on a histogram with events plotted against the FL2-A parameter. Cell cycle distribution was analyzed using the ModFit software and data presented represents three independent trials.

[6] = test system: RPA; test: Western blot of endogenous RPA34 levels; format: cell-based; conditions: western blot for RPA34
Experimental: Referring now to FIG. 18. Blot showing Endogenous Levels of RPA. Each cell line analyzed were plated (3×10^6) in 10 cm dishes and allowed to adhere overnight. Following a 5 ml PBS wash the cells were scraped into 100 μl of RIPA buffer. Cell extracts (40 μg) were loaded onto 10% SDS-PAGE gels, transferred to nitrocellulose membranes and probed for the presence of RPA34. Purified RPA was used as a positive control while GAPDH was probed for a loading control.

T1 sequence (P27694 whole entry): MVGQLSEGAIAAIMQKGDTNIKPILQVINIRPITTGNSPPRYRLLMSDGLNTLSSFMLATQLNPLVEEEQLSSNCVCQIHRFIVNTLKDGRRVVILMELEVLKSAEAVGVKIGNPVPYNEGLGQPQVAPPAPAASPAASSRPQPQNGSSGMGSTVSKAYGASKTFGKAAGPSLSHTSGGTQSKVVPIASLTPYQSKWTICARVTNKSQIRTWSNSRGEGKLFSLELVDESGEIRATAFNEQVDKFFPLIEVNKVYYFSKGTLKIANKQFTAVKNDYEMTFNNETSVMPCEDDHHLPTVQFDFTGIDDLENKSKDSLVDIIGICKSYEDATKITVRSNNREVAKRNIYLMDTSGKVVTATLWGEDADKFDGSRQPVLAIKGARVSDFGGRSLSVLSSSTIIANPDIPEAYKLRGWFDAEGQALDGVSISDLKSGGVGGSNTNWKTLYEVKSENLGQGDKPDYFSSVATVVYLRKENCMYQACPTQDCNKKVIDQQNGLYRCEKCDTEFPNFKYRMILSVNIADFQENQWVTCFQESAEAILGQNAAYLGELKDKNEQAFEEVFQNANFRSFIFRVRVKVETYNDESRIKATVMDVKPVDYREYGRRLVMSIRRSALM
T1 sequence (P15927 whole entry partner): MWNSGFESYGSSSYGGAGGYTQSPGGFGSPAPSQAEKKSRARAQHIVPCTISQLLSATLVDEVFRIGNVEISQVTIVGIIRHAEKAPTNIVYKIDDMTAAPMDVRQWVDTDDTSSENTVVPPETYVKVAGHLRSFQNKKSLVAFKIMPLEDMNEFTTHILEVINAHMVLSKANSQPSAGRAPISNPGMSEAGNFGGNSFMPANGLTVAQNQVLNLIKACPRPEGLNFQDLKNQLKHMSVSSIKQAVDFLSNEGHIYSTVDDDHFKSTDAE
T1 sequence (P35244 whole entry partner): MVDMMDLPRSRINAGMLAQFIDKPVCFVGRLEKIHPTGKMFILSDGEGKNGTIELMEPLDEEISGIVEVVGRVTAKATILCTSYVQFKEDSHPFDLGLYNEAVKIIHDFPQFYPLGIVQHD

With CC1(C)C2CCC1(C)C(OC(=O)CBr)C2 (racemic) [MCI13E, (+/−)-Isobornyl bromoacetate] as the molecule, how does the “Reversibility of full-length RPA inhibition” value [1] read?
Its value is “inhibition was not reversed by dialysis”.

What about the IC50 [2] of the same molecule?
The IC50 was ~1 µM.

And the “Mode of cell death” value [3]?
The value was “induces death via classical apoptosis”.

And the Induction of apoptosis [4]?
The Induction of apoptosis was “indicative of the induction of apoptosis”.

What about the Cell cycle distribution [5] of the same molecule?
Its Cell cycle distribution is “greater proportion of cells in the G1 phase”.

And the “Levels of endogenous RPA” value [6]?
The value was “No change in the levels of endogenous RPA”.
